Results taken from patent US20120010179A1, “Methods of using a thiazole derivative” (priority 2006, published 2012).

Test system: patients with COPD
Assay: Pulmonary function tests (spirometry FEV1, FVC), tetomilast with inhaled albuterol, crossover study (Example 1)
Format: in vivo, human
Details: for Estimated Treatment Effect, change from baseline in FEV1 (tetomilast versus placebo) / Estimated Treatment Effect, change from baseline in FVC (tetomilast versus placebo) / LS Mean change from baseline in FEV1 (repeated measures ANOVA) / LS Mean change from baseline in FVC (repeated measures ANOVA) / Mean (SD) change from baseline in FEV1 / Mean (SD) change from baseline in FVC: steady-state (predose) baseline, Day 8/23; for Estimated Treatment Effect, change from baseline in FEV1 (tetomilast versus placebo) / Estimated Treatment Effect, change from baseline in FVC (tetomilast versus placebo): both with inhaled albuterol; for LS Mean change from baseline in FEV1 (repeated measures ANOVA) / LS Mean change from baseline in FVC (repeated measures ANOVA) / Mean (SD) change from baseline in FEV1 / Mean (SD) change from baseline in FVC: tetomilast 50 mg QD + inhaled albuterol
Method: Pulmonary function tests were conducted throughout the study to monitor the subjects' respiratory status. Flow volume curves were collected via spirometry. Combivent® (Boehringer Ingleheim Pharmaceuticals, Inc., Ridgefield Conn.), which was used for short-acting rescues as needed throughout the studies described below, was withheld for 6 hours prior to any spirometric testing. Spirometry testing was performed at screening, baseline (Day 0), and at specific times during the treatment period. Each subject could have up to 5 spirometric readings at any study time point. Spirometric readings were performed using equipment from the central provider, Quantum Research, Inc. (Louisville, Colo.). All spirometry readings were recorded and sent to Quantum Research, Inc. for analysis
For the spirometric readings, the best effort was reported as follows. The highest acceptable forced expiratory volume in one second (FEV1) value was selected as the “best” of the given test session. If two or more FEV1 values were tied as highest, the sum of FEV1 and forced vital capacity (FVC) for those efforts was used. If both conditions were equal between the two efforts, the values reported were taken from the effort that occurred first, chronologically, based on date and time of the effort.
This study was a multicenter, randomized, double-blind, placebo-controlled, crossover, multiple dose, outpatient study in 27 patients with COPD. All subjects underwent a 28-day washout from inhaled corticosteroids and/or long-acting bronchodilators and/or continuous oxygen therapy (≧16 hours per day) and a 7-day washout from oral beta2-agonists and/or oral theophylline salts prior to baseline. Randomized subjects received an 8-day administration of oral placebo or tetomilast 50 mg oral dose (2×25 mg tablets) once daily (QD). On study Day 8, four consecutive doses of inhaled albuterol (90 μg albuterol base per puff) were given via a metered dose inhaler (MDI) and holding chamber (Ventolin®, GlaxoSmithKline, Research Triangle Park, N.C.), one dose every 30 minutes over the course of 90 minutes at doses of 90 μg+90 μg+180 μg+360 μg for a total dose of 720 μg (albuterol base) or 8 puffs.
Subjects entered a 7-day washout period (study days 9 through 15) and were then crossed over to the alternate treatment arm (placebo or tetomilast 50 mg oral dose). On study [0105] Day 23, the inhaled albuterol multiple dosing was repeated.
On Days 1-6 and 17-21, subjects were instructed to take their oral study medication (placebo or tetomilast 50 mg) QD with 8 ounces of water immediately before breakfast. Subjects assigned to the placebo arm received two placebo tablets QD. On Days 7, 8, 16, 22, and 23, subjects took their oral medication (placebo or tetomilast 50 mg) at the clinic in the presence of the study staff.
Combivent® inhalation aerosol use was allowed for short-acting rescue as needed throughout the study except on study days where PK samples were collected, on days when the multiple doses of inhaled albuterol were administered in the clinic, and/or on days when spirometry testing was performed. On all study days where PK samples were collected, Combivent® was withheld 6 hours prior to the PK draw. Additionally, on study Days 8 and 23 (when the multiple doses of inhaled albuterol were administered in the clinic), Combivent® was withheld 6 hours prior to PK assessment and throughout the duration of the clinic visit. Combivent® was withheld for six hours prior to spirometry testing. The recommended dose of Combivent® Inhalation Aerosol is two inhalations four times a day. In this study, subjects were permitted to take additional inhalations as required; however, the total number of inhalations was not to exceed 12 in 24 hours. Subjects were to “test-spray” three times before using for the first time and in cases where the aerosol had not been used for more than 24 hours. […]

For `CCOc1ccc(-c2nc(-c3cccc(C(=O)O)n3)cs2)cc1OCC` [Tetomilast, 2-(3,4-diethoxyphenyl)-4-(2-carboxy-6-pyridyl)thiazole], the “FVC steady-state (predose) baseline value, Mean (SD)” value (predose Day 8/23, on tetomilast 50 mg QD, prior to inhaled albuterol) was 2.67 (0.88) L, the “FEV1 steady-state (predose) baseline value, Mean” value (predose Day 8/23, on tetomilast 50 mg QD, prior to inhaled albuterol, Table 3) was 1.40 L and the “FVC steady-state (predose) baseline value, Mean” value (predose Day 8/23, on tetomilast 50 mg QD, prior to inhaled albuterol, Table 4) was 2.67 L. For the same compound, the “Estimated Treatment Effect, change from baseline in FEV1 (tetomilast versus placebo)” value (5 min postdose) was -0.01 L, the “Estimated Treatment Effect, change from baseline in FVC (tetomilast versus placebo)” value (5 min postdose) was 0.01 L and the “LS Mean change from baseline in FEV1 (repeated measures ANOVA)” value (shortened to “LS Mean change from baseline in FEV1”) (5 min postdose) was 0.16 L. The “LS Mean change from baseline in FVC (repeated measures ANOVA)” value (shortened to “LS Mean change from baseline in FVC”) (5 min postdose) was 0.30 L, the “Mean (SD) change from baseline in FEV1” value (5 min postdose) was 0.16 (0.09) L and the “Mean (SD) change from baseline in FVC” value (5 min postdose) was 0.27 (0.25) L. For the same compound, the “Estimated Treatment Effect, change from baseline in FEV1 (tetomilast versus placebo)” value (25 min postdose) was 0.03 L, the “Estimated Treatment Effect, change from baseline in FVC (tetomilast versus placebo)” value (25 min postdose) was 0.03 L and the “LS Mean change from baseline in FEV1” value (25 min postdose) was 0.19 L. For the same compound, the “LS Mean change from baseline in FVC” value (25 min postdose) was 0.29 L, the “Mean (SD) change from baseline in FEV1” value (25 min postdose) was 0.19 (0.16) L and the “Mean (SD) change from baseline in FVC” value (25 min postdose) was 0.29 (0.37) L. The “Estimated Treatment Effect, change from baseline in FEV1 (tetomilast versus placebo)” value (35 min postdose) was 0.03 L, the “Estimated Treatment Effect, change from baseline in FVC (tetomilast versus placebo)” value (35 min postdose) was 0.01 L and the “LS Mean change from baseline in FEV1” value (35 min postdose) was 0.24 L. For the same compound, the “LS Mean change from baseline in FVC” value (35 min postdose) was 0.39 L, the “Mean (SD) change from baseline in FEV1” value (35 min postdose) was 0.24 (0.18) L and the “Mean (SD) change from baseline in FVC” value (35 min postdose) was 0.39 (0.36) L. For the same compound, the “Estimated Treatment Effect, change from baseline in FEV1 (tetomilast versus placebo)” value (55 min postdose) was 0.05 L, the “Estimated Treatment Effect, change from baseline in FVC (tetomilast versus placebo)” value (55 min postdose) was 0.07 L and the “LS Mean change from baseline in FEV1” value (55 min postdose) was 0.27 L. For the same compound, the “LS Mean change from baseline in FVC” value (55 min postdose) was 0.37 L, the “Mean (SD) change from baseline in FEV1” value (55 min postdose) was 0.26 (0.20) L and the “Mean (SD) change from baseline in FVC” value (55 min postdose) was 0.36 (0.37) L. For the same compound, the “Estimated Treatment Effect, change from baseline in FEV1 (tetomilast versus placebo)” value (65 min postdose) was 0.06 L, the “Estimated Treatment Effect, change from baseline in FVC (tetomilast versus placebo)” value (65 min postdose) was 0.13 L and the “LS Mean change from baseline in FEV1” value (65 min postdose) was 0.30 L. For the same compound, the “LS Mean change from baseline in FVC” value (65 min postdose) was 0.50 L, the “Mean (SD) change from baseline in FEV1” value (65 min postdose) was 0.30 (0.20) L and the “Mean (SD) change from baseline in FVC” value (65 min postdose) was 0.50 (0.40) L. The “Estimated Treatment Effect, change from baseline in FEV1 (tetomilast versus placebo)” value (85 min postdose) was 0.05 L, the “Estimated Treatment Effect, change from baseline in FVC (tetomilast versus placebo)” value (85 min postdose) was 0.05 L and the “LS Mean change from baseline in FEV1” value (85 min postdose) was 0.31 L. For the same compound, the “LS Mean change from baseline in FVC” value (85 min postdose) was 0.45 L, the “Mean (SD) change from baseline in FEV1” value (85 min postdose) was 0.31 (0.20) L and the “Mean (SD) change from baseline in FVC” value (85 min postdose) was 0.45 (0.39) L. The “Estimated Treatment Effect, change from baseline in FEV1 (tetomilast versus placebo)” value (95 min postdose) was 0.05 L, the “Estimated Treatment Effect, change from baseline in FVC (tetomilast versus placebo)” value (95 min postdose) was 0.12 L and the “LS Mean change from baseline in FEV1” value (95 min postdose) was 0.34 L. The “LS Mean change from baseline in FVC” value (95 min postdose) was 0.53 L, the “Mean (SD) change from baseline in FEV1” value (95 min postdose) was 0.34 (0.21) L and the “Mean (SD) change from baseline in FVC” value (95 min postdose) was 0.53 (0.42) L. For the same compound, the “Estimated Treatment Effect, change from baseline in FEV1 (tetomilast versus placebo)” value (115 min postdose) was 0.05 L, the “Estimated Treatment Effect, change from baseline in FVC (tetomilast versus placebo)” value (115 min postdose) was 0.11 L and the “LS Mean change from baseline in FEV1” value (115 min postdose) was 0.33 L. The “LS Mean change from baseline in FVC” value (115 min postdose) was 0.51 L, the “Mean (SD) change from baseline in FEV1” value (115 min postdose) was 0.33 (0.20) L and the “Mean (SD) change from baseline in FVC” value (115 min postdose) was 0.51 (0.48) L. For the same compound, the “Estimated Treatment Effect, change from baseline in FEV1 (tetomilast versus placebo)” value (175 min postdose) was 0.06 L, the “Estimated Treatment Effect, change from baseline in FVC (tetomilast versus placebo)” value (175 min postdose) was 0.07 L and the “LS Mean change from baseline in FEV1” value (175 min postdose) was 0.34 L. For the same compound, the “LS Mean change from baseline in FVC” value (175 min postdose) was 0.50 L, the “Mean (SD) change from baseline in FEV1” value (175 min postdose) was 0.34 (0.21) L and the “Mean (SD) change from baseline in FVC” value (175 min postdose) was 0.50 (0.38) L. The “Estimated Treatment Effect, change from baseline in FEV1 (tetomilast versus placebo)” value (235 min postdose) was 0.04 L, the “Estimated Treatment Effect, change from baseline in FVC (tetomilast versus placebo)” value (235 min postdose) was 0.01 L and the “LS Mean change from baseline in FEV1” value (235 min postdose) was 0.32 L. For the same compound, the “LS Mean change from baseline in FVC” value (235 min postdose) was 0.39 L, the “Mean (SD) change from baseline in FEV1” value (235 min postdose) was 0.32 (0.25) L and the “Mean (SD) change from baseline in FVC” value (235 min postdose) was 0.40 (0.50) L. For the same compound, the “Estimated Treatment Effect, change from baseline in FEV1 (tetomilast versus placebo)” value (295 min postdose) was 0.03 L, the “Estimated Treatment Effect, change from baseline in FVC (tetomilast versus placebo)” value (295 min postdose) was 0.11 L and the “LS Mean change from baseline in FEV1” value (295 min postdose) was 0.23 L. The “LS Mean change from baseline in FVC” value (295 min postdose) was 0.35 L, the “Mean (SD) change from baseline in FEV1” value (295 min postdose) was 0.23 (0.26) L and the “Mean (SD) change from baseline in FVC” value (295 min postdose) was 0.35 (0.50) L. The “Estimated Treatment Effect, change from baseline in FEV1 (tetomilast versus placebo)” value (355 min postdose) was 0.11 L, the “Estimated Treatment Effect, change from baseline in FVC (tetomilast versus placebo)” value (355 min postdose) was 0.17 L and the “LS Mean change from baseline in FEV1” value (355 min postdose) was 0.23 L. For the same compound, the “LS Mean change from baseline in FVC” value (355 min postdose) was 0.32 L, the “Mean (SD) change from baseline in FEV1” value (355 min postdose) was 0.23 (0.22) L and the “Mean (SD) change from baseline in FVC” value (355 min postdose) was 0.32 (0.43) L.
